US8192962B2, “Processes for detecting toxic substances” (Daikin Industries, Ltd., priority 2001, dated 2012)

Tested on: Transport facilitation protein genes
Assay: DNA chip mRNA expression in yeast, transport facilitation protein genes (Table 5)
Assay type: cell-based, Saccharomyces cerevisiae S288C
Procedure, shortened: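 Cells were grown at 25° C. in YPD, treated at logarithmic phase for 2 h with a chemical at a concentration inhibiting growth but not causing death, and compared with untreated cultures. Labeled cDNA was hybridized to a DNA chip carrying all yeast genes, and the expression ratio was taken from scanner fluorescence.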

N#Cc1c(Cl)c(Cl)c(Cl)c(C#N)c1Cl [(9), 2,4,5,6-tetrachloro-1,3-benzenedicarbonitrile]
The level of expressed mRNA in the presence of chemical substance/The level of expressed mRNA in the absence of chemical substance (yeast gene YBL030C): 0.4
The level of expressed mRNA in the presence of chemical substance/The level of expressed mRNA in the absence of chemical substance (yeast gene YBL099W): 0.9
The level of expressed mRNA in the presence of chemical substance/The level of expressed mRNA in the absence of chemical substance (yeast gene YBR052C): 2.3
The level of expressed mRNA in the presence of chemical substance/The level of expressed mRNA in the absence of chemical substance (yeast gene YBR068C): 0.8
The level of expressed mRNA in the presence of chemical substance/The level of expressed mRNA in the absence of chemical substance (yeast gene YBR127C): 0.6
The level of expressed mRNA in the presence of chemical substance/The level of expressed mRNA in the absence of chemical substance (yeast gene YBR132C): 0.8
The level of expressed mRNA in the presence of chemical substance/The level of expressed mRNA in the absence of chemical substance (yeast gene YBR207W): 1.7
The level of expressed mRNA in the presence of chemical substance/The level of expressed mRNA in the absence of chemical substance (yeast gene YBR293W): 5.5
The level of expressed mRNA in the presence of chemical substance/The level of expressed mRNA in the absence of chemical substance (yeast gene YBR294W): 5.2
The level of expressed mRNA in the presence of chemical substance/The level of expressed mRNA in the absence of chemical substance (yeast gene YBR295W): 1.2
The level of expressed mRNA in the presence of chemical substance/The level of expressed mRNA in the absence of chemical substance (yeast gene YBR298C): 0.3
The level of expressed mRNA in the presence of chemical substance/The level of expressed mRNA in the absence of chemical substance (yeast gene YCL025C): 0.3
The level of expressed mRNA in the presence of chemical substance/The level of expressed mRNA in the absence of chemical substance (yeast gene YCL038C): 1.1
The level of expressed mRNA in the presence of chemical substance/The level of expressed mRNA in the absence of chemical substance (yeast gene YCR024C-A): 0.2
The level of expressed mRNA in the presence of chemical substance/The level of expressed mRNA in the absence of chemical substance (yeast gene YCR037C): 0.6
The level of expressed mRNA in the presence of chemical substance/The level of expressed mRNA in the absence of chemical substance (yeast gene YCR098C): 1.4
The level of expressed mRNA in the presence of chemical substance/The level of expressed mRNA in the absence of chemical substance (yeast gene YDL128W): 0.5
The level of expressed mRNA in the presence of chemical substance/The level of expressed mRNA in the absence of chemical substance (yeast gene YDL198C): 1.9
The level of expressed mRNA in the presence of chemical substance/The level of expressed mRNA in the absence of chemical substance (yeast gene YDL210W): 1.2
The level of expressed mRNA in the presence of chemical substance/The level of expressed mRNA in the absence of chemical substance (yeast gene YDL245C): 0.4
The level of expressed mRNA in the presence of chemical substance/The level of expressed mRNA in the absence of chemical substance (yeast gene YDR038C): 1.4
The level of expressed mRNA in the presence of chemical substance/The level of expressed mRNA in the absence of chemical substance (yeast gene YDR039C): 1.8
The level of expressed mRNA in the presence of chemical substance/The level of expressed mRNA in the absence of chemical substance (yeast gene YDR086C): 0.6
The level of expressed mRNA in the presence of chemical substance/The level of expressed mRNA in the absence of chemical substance (yeast gene YDR270W): 2.9
The level of expressed mRNA in the presence of chemical substance/The level of expressed mRNA in the absence of chemical substance (yeast gene YDR298C): 1.0
The level of expressed mRNA in the presence of chemical substance/The level of expressed mRNA in the absence of chemical substance (yeast gene YDR342C): 0.2
The level of expressed mRNA in the presence of chemical substance/The level of expressed mRNA in the absence of chemical substance (yeast gene YDR343C): 0.3
The level of expressed mRNA in the presence of chemical substance/The level of expressed mRNA in the absence of chemical substance (yeast gene YDR345C): 0.2
The level of expressed mRNA in the presence of chemical substance/The level of expressed mRNA in the absence of chemical substance (yeast gene YDR387C): 1.4
The level of expressed mRNA in the presence of chemical substance/The level of expressed mRNA in the absence of chemical substance (yeast gene YDR497C): 0.4
The level of expressed mRNA in the presence of chemical substance/The level of expressed mRNA in the absence of chemical substance (yeast gene YEL027W): 0.9
The level of expressed mRNA in the presence of chemical substance/The level of expressed mRNA in the absence of chemical substance (yeast gene YEL063C): 0.8
The level of expressed mRNA in the presence of chemical substance/The level of expressed mRNA in the absence of chemical substance (yeast gene YEL065W): 0.1
The level of expressed mRNA in the presence of chemical substance/The level of expressed mRNA in the absence of chemical substance (yeast gene YER053C): 1.3
The level of expressed mRNA in the presence of chemical substance/The level of expressed mRNA in the absence of chemical substance (yeast gene YFL011W): 0.3
The level of expressed mRNA in the presence of chemical substance/The level of expressed mRNA in the absence of chemical substance (yeast gene YFL041W): 0.8
The level of expressed mRNA in the presence of chemical substance/The level of expressed mRNA in the absence of chemical substance (yeast gene YFL050C): 0.5
The level of expressed mRNA in the presence of chemical substance/The level of expressed mRNA in the absence of chemical substance (yeast gene YFL054C): 2.0
The level of expressed mRNA in the presence of chemical substance/The level of expressed mRNA in the absence of chemical substance (yeast gene YGL006W): 3.0
The level of expressed mRNA in the presence of chemical substance/The level of expressed mRNA in the absence of chemical substance (yeast gene YGL008C): 0.0
The level of expressed mRNA in the presence of chemical substance/The level of expressed mRNA in the absence of chemical substance (yeast gene YGL104C): 4.6
The level of expressed mRNA in the presence of chemical substance/The level of expressed mRNA in the absence of chemical substance (yeast gene YGL167C): 1.3
The level of expressed mRNA in the presence of chemical substance/The level of expressed mRNA in the absence of chemical substance (yeast gene YGL255W): 0.3
The level of expressed mRNA in the presence of chemical substance/The level of expressed mRNA in the absence of chemical substance (yeast gene YGR055W): 5.0
The level of expressed mRNA in the presence of chemical substance/The level of expressed mRNA in the absence of chemical substance (yeast gene YGR065C): 1.2
The level of expressed mRNA in the presence of chemical substance/The level of expressed mRNA in the absence of chemical substance (yeast gene YGR082W): 0.6
The level of expressed mRNA in the presence of chemical substance/The level of expressed mRNA in the absence of chemical substance (yeast gene YGR096W): 0.8
The level of expressed mRNA in the presence of chemical substance/The level of expressed mRNA in the absence of chemical substance (yeast gene YGR138C): 0.5
The level of expressed mRNA in the presence of chemical substance/The level of expressed mRNA in the absence of chemical substance (yeast gene YGR191W): 0.1
The level of expressed mRNA in the presence of chemical substance/The level of expressed mRNA in the absence of chemical substance (yeast gene YGR197C): 16.7
The level of expressed mRNA in the presence of chemical substance/The level of expressed mRNA in the absence of chemical substance (yeast gene YGR224W): 0.9
